For data set [1], the system named is Liver. Put plainly: Stability of the compound in mouse liver microsomes assessed as compound remaining. The data set is classed as ADME, microsome.
Data set [2] relates to Liver. Put plainly: Stability of the compound in rat liver microsomes assessed as compound remaining. The data set is classed as ADME, microsome. In general terms: Liver microsomes are a subcellular fraction often used to study metabolism.
Data set [3] concerns Liver. Put plainly: Stability of the compound in human liver microsomes assessed as compound remaining. The data set is classed as ADME, microsome.
Data set [4] in a line: Permeability of the compound by PAMPA. The data set is classed as physicochemical. The following applies: read-out: permeability. For orientation: In PAMPA a lipid-coated filter parts donor from acceptor wells.

Turning to `[2H]C1([2H])OC(C)(C)C(=O)N(c2cc(-c3cc(C(F)(F)F)c4c(N)ncnn34)ccc2C#N)C1([2H])[2H]`, the Stability in the data set with Liver [1] is given as 74%; with Liver [2], 75%; with Liver [3] it was 91%.
The like results for `C[C@H]1COC(C)(C)C(=O)N1c1cc(-c2cc(C(F)(F)F)c3c(N)ncnn23)ccc1C#N` were, in that order, 1%, 1% and 23%.
The corresponding values for `C[C@@H]1CN(c2cc(-c3cc(Cl)c4c(N)ncnn34)ccc2C#N)C(=O)C(C)(C)O1` are 43%, 5% and 61%.
As for `[2H]C([2H])([2H])C1([2H])N(c2cc(-c3cc(Cl)c4c(N)ncnn34)ccc2C#N)C(=O)C(C)(C)OC1([2H])[2H]` (centres undefined), the Stability in the data set with Liver [1] was 0 to 28%; in the data set on Liver [2], 34 to 37%; in the data set on Liver [3] it was 83 to 87%.
Regarding `C[C@H]1OC(C)(C)C(=O)N(c2cc(-c3cc(C(F)(F)F)c4c(N)ncnn34)ccc2C#N)[C@H]1C`, the Stability is on record as 4% in the data set with Liver [1], 2% with Liver [2] and 50% with Liver [3]. Besides, the Papp in data set [4] worked out at 65.9 ×10⁻⁶ cm/s.
Regarding `[2H]C1([2H])OC(C)(C)C(=O)N(c2cc(-c3cc(Cl)c4c(N)ncnn34)ccc2C#N)C1([2H])[2H]`, the Stability in the data set on Liver [1] turned out to be 58%; in the data set on Liver [2], 76%; with Liver [3], 94%.
The corresponding values for `C[C@H]1CN(c2cc(-c3cc(Cl)c4c(N)ncnn34)ccc2C#N)C(=O)C(C)(C)O1` are 0%, 0% and 18%.
For the compound `CC[C@H]1COC(C)(C)C(=O)N1c1cc(-c2cc(Cl)c3c(N)ncnn23)ccc1C#N`, the Stability in the data set on Liver [1] is listed as 1%; with Liver [2], 4%; in the data set with Liver [3] it was 53%.
The like results for `[2H]C([2H])([2H])C1([2H])N(c2cc(-c3cc(C(F)(F)F)c4c(N)ncnn34)ccc2C#N)C(=O)C(C)(C)OC1([2H])[2H]` (centres undefined) were, in that order, 0 to 18%, 32 to 44% and 77 to 91%.
The like results for `C[C@@H]1COC(C)(C)C(=O)N1c1cc(-c2cc(Cl)c3c(N)ncnn23)ccc1C#N` were, in that order, 28%, 25% and 92%.
The like results for `C[C@H]1CN(c2cc(-c3cc(C(F)(F)F)c4c(N)ncnn34)ccc2C#N)C(=O)C(C)(C)O1` were, in that order, 24%, 29% and 85%.
